IC50 data for three compounds are collected here from BindingDB's records for doi:10.1016/j.bmcl.2015.12.061 (Auburn University, 2016).

The structures appear in SMILES notation.

What is called IC50 is the concentration at which inhibition is half-maximal. A high value points to lower potency.

The experiment deals with S-adenosylhomocysteine hydrolase (Homo sapiens). The experiment can be described thus: Inhibition of S-adenosylhomocysteine hydrolase (unknown origin).
The compound `Nc1ncc(Br)c2c1ncn2[C@@H]1C=C(CO)[C@@H](O)[C@H]1O` showed an IC50 of 2.7 nM. As to `Nc1ncc(Br)c2c1ncn2C1=C[C@H](CO)[C@@H](O)[C@H]1O`, 13 nM corresponded to half-maximal inhibition (IC50). Take `Nc1ncc(Br)c2c1ncn2C1=C[C@@H](CO)[C@H](O)[C@@H]1O`: the IC50 turned out to be 10000 nM.
